These results are taken from US20210128537A1, “T-TYPE CALCIUM CHANNEL MODULATORS AND METHODS OF USE THEREOF” (Praxis Precision Medicines, inc., priority 2016, published 2021).

The test system of data set [1] is post-SE rats. Kind of data set: Forced swim test in post-SE rats. In kind it is in vivo, rat. The note with it: Z944 60 mg/kg/day for 4 weeks, p<0.05. The protocol: All behavioural tests were performed in a light-controlled (˜110 lux), closed, quiet and clean room in the. Behavioural testing was performed in a blinded manner to the treatment groups. All of the behavioural tests were video recorded for future analysis. OF, EPM and MWM sessions were filmed using a digital camera mounted above the centre of the arena, which was connected to a computer for the recording and objective analysis of digitized behavioural tests (EthoVision 3.0.15, Noldus). The first behavioural test was performed one week after the last EEG recording. The different behavioural tests/session were performed 24 hours apart from each other. All tests were scored by an experienced observer who was blind to the experimental conditions of the animals.
The FST was performed in a clear Plexiglas cylinder (50 cm long×30 cm diameter) filled with water (25±1° C.). The FST was divided into a 15-min training session and a 5-min test session performed 24 h later, as previously described. Immobility time and swimming time were analysed.

The test system of another data set is GAERS nRT neuron. The data set can be described thus: Thalamic slice current-clamp recordings, burst firing in nRT neurons. In kind it is cell-based, rat. The conditions noted are these: 1 mM Z944; for voltage response to depolarizing current, low threshold spiking: in 600 nM TTX.
Another data set relates to fully kindled rats. The data set can be described thus: Amygdala kindling model, anti-seizure testing in fully kindled rats. In kind it is in vivo, rat. The protocol: Animals were implanted with EEG recording electrodes and with a stimulating bipolar electrode in the left basolateral amygdaloid nucleus using the coordinates AP±3.0 mm, ML±5.9 mm, DV±6.0 mm. The after discharge threshold (ADT) for each animal was determined by administering a stimulation (frequency=60.1 Hz; duration=1000 μs) at one minute intervals until a seizure was clicited. The amplitude of the stimulation was started at 0.02 mA with increments of 0.02 mA; the stimulations were stopped when the animal experienced a seizure of ≥6 second duration, or if the amplitude of 0.40 mA was reached without the occurrence of a seizure. […] Kindling was performed twice a day for five days per week with an endpoint of 30 stimulations or until the animal presented five class V seizures (referred to as fully kindled). The seizure severity was classified from 0 (less severe) to V (most severe) according to the Racine Scale (Racine, 1972b). Sham kindled animals were handled the same way as the kindled animals, although no electrical stimulation was applied. An animal is classified as fully kindled once it has experienced 5 class V seizures.
Drug testing was performed twice a week until all animals had received each of the seven treatments, Z944 (5 mg/kg, 10 mg/kg, 30 mg/kg and 100 mg/kg), vehicle (10% DMSO/90% Na^+-CMC or CBZ vehicle 20% DMSO/40% propylene glycol/40% saline), ETX (100 mg/kg) or CBZ (30 mg/kg). Prior to drug testing each day, animals were subjected to a maximum of three pre-drug stimulations 30 minutes apart. The animals qualified for testing on that particular day if a class IV or V seizure was elicited in at least 2 out of 3 pre-drug stimulations. Stimulations consisted of a 1 second train of 1 ms biphasic square wave pulses at a frequency of 60 Hz with current amplitude based on each animal ADT that elicited a seizure. Thirty minutes after the last pre-drug stimulation, the animals received an IP injection of one of the seven treatments in a randomized manner at a dose volume of 5 ml/kg. Six post-drug stimulations were administered to each animal, the first stimulation was given 15 minutes post drug injection (to allow brain penetration of the drugs) and the following five stimulations were delivered in 30 minutes intervals thereafter with the seizure class elicited being recorded after each post-drug stimulation. The duration of the primary and total seizures, if any, were recorded. An investigator blinded to the drug treatment analyzed all EEG recordings. Primary after discharge is the duration of the seizure elicited from the kindling stimulation. Total after discharge is the total seizure duration including any secondary seizures that occur after the primary after discharge. Primary after discharge duration and total seizure duration were recorded and averaged for the 6 post-drug stimulations.
Animal weight and behaviour when handled were monitored for the duration of the experimental period. Additionally, animals were assessed by observation for any adverse effects of drugs on grooming, fur appearance, gait, and excretion.

The test system of data set [2] is post-SE rats. Kind of data set: Kainic acid induced post-status epilepticus model, video-EEG seizure analysis. In kind it is in vivo, rat. The procedure:
Pumps were filled with either Z944 to deliver a daily dose of 60 mg/kg, levetiracetam to deliver a daily dose of 200 mg/kg or vehicle. For the drug tolerability study, osmotic pumps continuously either Z944, levetiracetam or vehicle for 7 days and for the post-SE study osmotic pumps delivered continuously the different treatments for 28 days.
FIG. 11 summarizes the different methods used on this experimental paradigm.
Animals were implanted with subdural EEG recording electrodes and one week after surgery, the animals were connected using cables that allowed them free movement around their cage. A repeated low dose KA administration protocol was used. Rats were injected i.p. with an initial dose of KA 7.5 mg/kg plus 3 ml of normal saline to prevent dehydration. Animals were monitored for 45 minutes for EEG and behavioural seizures based on the Racine scale. […] This was repeated up to 2 times every 45 minutes. An animal was eliminated from the experiment if it didn't show a stable self-sustained SE after a maximum KA total dose of 15 mg/kg. Two sham groups were treated identically but received saline injections instead of KA. After four hours of sustained electroencephalographic and behavioural seizures the animals were randomly allocated to one of the five treatment groups: sham+vehicle (n=6), sham+Z944 (n=6), post-SE+vehicle (n=8), post-SE+Z944 (n=8), post-SE+levetiracetam (n=9).
Animals were anesthetized and implanted with subcutaneous osmotic pumps containing either vehicle Z944 (60 mg/kg/day), or levetiracetam (200 mg/kg/day) that delivered the treatment continuously for 4 weeks. Immediately after the pump implantation, SE was stopped with diazepam (5 mg/kg/dose).
vEEG recordings commenced at least 4 h prior the induction of SE to provide baseline recordings. The video-EEG recordings continued for the whole duration of the treatment period, i.e. four weeks after the termination of the SE. […] EEG analysis was performed in a blinded manner and confirmed by two different observers. All EEG recordings were visually and manually annotated using Profusion 3 software. A seizure was defined as an episode of rhythmic spiking activity that was three times the baseline amplitude and a frequency >5 Hz that lasted at least 10 s. The end of a seizure was determined as the last spike. The average number of seizures per day, average seizure duration and seizure class (severity) were analysed.

`CC(C)(C)NC(=O)CN1CCC(CNC(=O)c2cc(F)cc(Cl)c2)CC1` [Z944]: the “forced swim test immobility time” value in the data set on post-SE rats [1] is “vehicle had an increased immobility time when compared to both sham groups and post-SE+Z944 group”. Moreover, the “voltage response to depolarizing current, burst firing” value in the data set on GAERS nRT neuron (+80 pA (threshold for burst firing in control)) is on record as “subthreshold for firing”; in the data set on GAERS nRT neuron (+120 pA (suprathreshold for burst firing in control)), “threshold for tonic firing”. In addition, the entries for the “voltage response to depolarizing current, low threshold spiking” value with GAERS nRT neuron (+100 pA) and with GAERS nRT neuron (+190 pA (suprathreshold in control)) were “subthreshold for low-threshold spiking” and “still subthreshold”, respectively. Moreover, the “seizure class elicited (Racine scale)” value with fully kindled rats (IP, Z944 5, 10, 30, 100 mg/kg, CBZ 30 mg/kg, compared to vehicle) is “does not suppress seizures”. Also, the primary after discharge result in the data set with fully kindled rats (IP, all four doses of Z944, ETX 100 mg/kg, CBZ 30 mg/kg, compared to vehicle (p>0.5)) is “did not affect the primary after discharge”. Also, the “adverse effects (sedation scale 0-4) compared to vehicle” value with fully kindled rats (Z944 100 mg/kg, CBZ 30 mg/kg IP, p<0.01) was “significantly higher adverse effects”. Besides, the “adverse effects (sedation scale 0-4), dose dependence” value with fully kindled rats (Z944 5 to 100 mg/kg IP) is on record as “dose dependent”. Moreover, in the data set on post-SE rats [2] (60 mg/kg/day for 4 weeks, EEG after 4 weeks from drug washout), the “seizures on EEG after drug washout (seizures per day, duration, severity)” value is listed as “Anti-Epileptogenic”. Moreover, the “seizures on EEG during treatment (seizures per day, duration, severity)” value with post-SE rats [2] (60 mg/kg/day, during the 4 weeks of continuous treatment after SE) was “Anti-Epileptogenic Effects”. Also, in the data set on post-SE rats [2] (in two weeks of vEEG after drug washout), the “number of seizures in each animal that developed seizures” value is reported as “one”. For the same molecule, the “neurological adverse effects after prolonged treatment” value with post-SE rats [2] (osmotic pump 4 weeks, Z944 60 mg/kg/day, levetiracetam 200 mg/kg/day) was “only transient and minor neurological adverse effects”. In addition, the “treated animals that developed seizures” value in the data set on post-SE rats [2] (two weeks of vEEG after 4 weeks drug washout, n=8) was “two of the eight”.
